US20070004650A1, “Endurance improving agent” (KAO CORPORATION, priority 2003, published 2007)

Columns and labels:
Format in all cases: cell-based, mouse
[1] = tested on: phospho-AMPK α (Thr72); experiment: AMPK activation in Hepa 1-6 cells, phospho-AMPK α Western blot; details: for Phospho-AMPK α: 60 minutes, Hepa 1-6, band intensity relative to control = 100; for AMPK-activating effect (summary in words): Hepa 1-6, results of Tables 4 to 6
Procedure: (§1) Test 3 (AMPK Activating Effect of Catechins)
(§2) Using a mouse hepatocyte line (Hepa 1-6), activation of AMPK was assessed based on degrees of phosphorylation of AMPK and ACC (acetyl-CoA carboxylase) as indices.
The mouse hepatocyte line (Hepa 1-6) was seeded in a 25-cm^2 flask, and cultured in DMEM (+10% FBS, +antimicrobial agent) at 37° C. for 1 to 2 days. When the culture has become subconfluent, the medium was removed. After washed with PBS(−),DMEM(−FBS)was added as a replacement medium, followed by further culture for 1 day. Subsequent to removal of the medium, DMEM (−FBS) with catechins and a tea extract added at predetermined concentrations therein was added, followed by culture for 60 minutes. Subsequent to removal of the medium and washing with PBS (−), a lytic solution [10 mM Tris (pH 7.4), 50 mM NaCl, 30 mM sodium pyrophosphate, 0.5% Triton X-100, protease inhibitor cocktail (“SIGMA P2714”), phosphatase inhibitor cocktail-1 (“SIGMA P2850”), phosphatase inhibitor cocktail 1-2 (“SIGMA P5726”); 200 μL] was added, and a lysate was collected by a cell scraper. The thus-collected lysate was caused to pass three times through a syringe with 23 G needle so that the lysate was homogenized. The homogenized lysate was then allowed stand on ice for 30 minutes. The lysate was centrifuged at 15,000 rpm and at 4° C. for 15 minutes, and proteins in supernatant were provided for use in the following experiment.
After the concentration of the proteins in supernatant was measured, it was adjusted such that the protein concentration became identical among the samples. A ¼ volume of SDS buffer (250 mM Tris, 12.5% SDS, 20% glycerol) was added, followed by further addition of 2-mercaptoethanol and bromophenol blue. The resulting mixture was subjected to thermal denaturation at 95° C., and was then quenched at 4° C. to provide a sample for electrophoresis.
A predetermined amount (about 20 to 40 μg) of the sample for electrophoresis was subjected to SDS-PAGE (4 or 12% gel). After transferred onto a membrane, phospho-AMPK α (Thr72), phospho-AMPK β (Ser108) and phospho-ACC (Ser79) were detected using an anti-phospho-AMPK α antibody (product of Cell Signaling Technology, Inc.), an anti-phospho-AMPK β antibody (product of Cell Signaling Technology, Inc.) or an anti-phospho-ACC antibody (product of Cell Signaling Technology, Inc.) as a primary antibody, an anti-rabbit-HRP antibody (product of Amersham Biosciences, Inc.) as a secondary antibody, and a phototope-HRP Western detection system (product of Cell Signaling Technology, Inc.) as a detection reagent. The intensities of detected bands were converted into numerical values (pixels) by an image analysis (“EDAS 290 Image Analysis System”, Kodak Company). Supposing that the corresponding band intensities of the control (catechins non-added group) were 100, the numerical values (pixels) were indicated as relative values to the values of the control. It is to be noted that as catechin samples, products of SIGMA Corporation or Wako Pure Chemical Industries, Ltd. were used. As the tea extract (tea catechins), “TEAFURAN” (product of ITO EN, LTD.) as used.

[2] = tested on: phospho-ACC (Ser79); experiment: AMPK activation in Hepa 1-6 cells, phospho-ACC Western blot; details: 60 minutes, band intensity relative to control = 100
Procedure: The mouse hepatocyte line (Hepa 1-6) was seeded in a 25-cm^2 flask, and cultured in DMEM (+10% FBS, +antimicrobial agent) at 37° C. for 1 to 2 days. When the culture has become subconfluent, the medium was removed. After washed with PBS(−),DMEM(−FBS)was added as a replacement medium, followed by further culture for 1 day. Subsequent to removal of the medium, DMEM (−FBS) with catechins and a tea extract added at predetermined concentrations therein was added, followed by culture for 60 minutes. […]
A predetermined amount (about 20 to 40 μg) of the sample for electrophoresis was subjected to SDS-PAGE (4 or 12% gel). […] The intensities of detected bands were converted into numerical values (pixels) by an image analysis (“EDAS 290 Image Analysis System”, Kodak Company). […]

[3] = tested on: phospho-AMPK β (Ser108); experiment: AMPK activation in Hepa 1-6 cells, phospho-AMPK β Western blot; details: 60 minutes, band intensity relative to control = 100
Procedure: as §1, §2
The mouse hepatocyte line (Hepa 1-6) was seeded in a 25-cm^2 flask, and cultured in DMEM (+10% FBS, +antimicrobial agent) at 37° C. for 1 to 2 days. When the culture has become subconfluent, the medium was removed. After washed with PBS(−),DMEM(−FBS)was added as a replacement medium, followed by further culture for 1 day. […]
After the concentration of the proteins in supernatant was measured, it was adjusted such that the protein concentration became identical among the samples. […]
A predetermined amount (about 20 to 40 μg) of the sample for electrophoresis was subjected to SDS-PAGE (4 or 12% gel). After transferred onto a membrane, phospho-AMPK α (Thr72), phospho-AMPK β (Ser108) and phospho-ACC (Ser79) were detected using an anti-phospho-AMPK α antibody (product of Cell Signaling Technology, Inc.), an anti-phospho-AMPK β antibody (product of Cell Signaling Technology, Inc.) or an anti-phospho-ACC antibody (product of Cell Signaling Technology, Inc.) as a primary antibody, an anti-rabbit-HRP antibody (product of Amersham Biosciences, Inc.) as a secondary antibody, and a phototope-HRP Western detection system (product of Cell Signaling Technology, Inc.) as a detection reagent. […]

Catechin
Phospho-AMPK α ([1]; Table 4, 150 μM): 78

O=C(O[C@@H]1Cc2c(O)cc(O)cc2O[C@H]1c1cc(O)c(O)c(O)c1)c1cc(O)c(O)c(O)c1 [Gallocatechingallate]
AMPK-activating effect (summary in words) [1]: excellent AMPK-activating effect | Phospho-AMPK α ([1]; Table 4, 150 μM): 1124

O=C(O[C@@H]1Cc2c(O)cc(O)cc2O[C@@H]1c1cc(O)c(O)c(O)c1)c1cc(O)c(O)c(O)c1 [Epigallocatechingallate]
Phospho-ACC ([2]; Table 5, 100 μM): 220 | Phospho-ACC ([2]; Table 5, 150 μM): 304 | AMPK-activating effect (summary in words) [1]: excellent AMPK-activating effect | Phospho-AMPK α ([1]; Table 4, 150 μM): 1085 | Phospho-AMPK α ([1]; Table 5, 100 μM): 198 | Phospho-AMPK α ([1]; Table 5, 150 μM): 261 | Phospho-AMPK β ([3]; Table 5, 100 μM): 120 | Phospho-AMPK β ([3]; Table 5, 150 μM): 149

Catechingallate
Phospho-AMPK α ([1]; Table 4, 150 μM): 369

O=C(O[C@@H]1Cc2c(O)cc(O)cc2O[C@@H]1c1ccc(O)c(O)c1)c1cc(O)c(O)c(O)c1 [Epicatechingallate]
Phospho-AMPK α ([1]; Table 4, 150 μM): 256

Oc1cc(O)c2c(c1)O[C@H](c1cc(O)c(O)c(O)c1)[C@H](O)C2 [Epigallocatechin]
AMPK-activating effect (summary in words) [1]: excellent AMPK-activating effect | Phospho-AMPK α ([1]; Table 4, 150 μM): 435

Oc1cc(O)c2c(c1)O[C@H](c1ccc(O)c(O)c1)[C@H](O)C2 [Epicatechin]
Phospho-AMPK α ([1]; Table 4, 150 μM): 246

Oc1cc(O)c2c(c1)O[C@H](c1cc(O)c(O)c(O)c1)[C@@H](O)C2 [Gallocatechin]
AMPK-activating effect (summary in words) [1]: excellent AMPK-activating effect | Phospho-AMPK α ([1]; Table 4, 150 μM): 451
